Test results: patent US20230114728A1 (Venatorx Pharmaceuticals, Inc., priority 2019, published 2023)
Values after ≈ are worked out from the molar mass of the structure shown.

How the values were obtained:
N. gonorrhoeae WHO K = assay: Liquid broth MIC in Fastidious broth; assay type: cell-based; conditions: Neisseria gonorrhoeae, read-out: Minimum Inhibitory Concentration, N. gonorrhoeae WHO K
Outline: (§1)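 MIC = lowest concentration giving <10% growth relative to untreated wells, scored by eye after ~24 h at 36 °C, 5% CO2. Strains carry mosaic PBP2; inoculum 5×10^5 CFU/mL in Fastidious broth with 2-fold serial compound dilutions.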

N. gonorrhoeae WHO G = assay: Liquid broth MIC in Fastidious broth; assay type: cell-based; conditions: Neisseria gonorrhoeae; N. gonorrhoeae strain WHO G; Fastidious broth; read-out: Minimum Inhibitory Concentration, N. gonorrhoeae WHO G
Outline: (§2)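 Colonies were swabbed from chocolate agar after 24 h growth and standardised by optical density at 600 nm. Compounds were serially diluted twofold in Fastidious broth, and bacteria added to give 5×10^5 CFU/mL. After about 24 h at 36 °C in 5% CO2, the lowest concentration allowing under 10% growth was taken as MIC.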

N. gonorrhoeae WHO L = assay: Liquid broth MIC in Fastidious broth; assay type: cell-based; conditions: Neisseria gonorrhoeae; N. gonorrhoeae strain WHO L; Fastidious broth; read-out: Minimum Inhibitory Concentration, N. gonorrhoeae WHO L
Outline: as §2

N. gonorrhoeae WHO Z = assay: Liquid broth MIC in Fastidious broth; assay type: cell-based; conditions: Neisseria gonorrhoeae, read-out: Minimum Inhibitory Concentration, N. gonorrhoeae WHO Z
Outline: as §1

[1] = test system: N. gonorrhoeae ATCC 49226; assay: Liquid broth MIC in Fastidious broth; assay type: cell-based; conditions: Neisseria gonorrhoeae, ATCC49226; N. gonorrhoeae strain ATCC 49226; Fastidious broth; read-out: Minimum Inhibitory Concentration, N. gonorrhoeae ATCC 49226
Outline: as §2

N. gonorrhoeae WHO Q = assay: Liquid broth MIC in Fastidious broth; assay type: cell-based; conditions: Neisseria gonorrhoeae, read-out: Minimum Inhibitory Concentration, N. gonorrhoeae WHO Q
Outline: as §1

N. gonorrhoeae H041 = assay: Liquid broth MIC in Fastidious broth; assay type: cell-based; conditions: Neisseria gonorrhoeae, H041, read-out: Minimum Inhibitory Concentration, N. gonorrhoeae H041
Outline: as §1

N. gonorrhoeae FA1090 = assay: Liquid broth MIC in Fastidious broth; assay type: cell-based; conditions: Neisseria gonorrhoeae; N. gonorrhoeae strain FA1090; Fastidious broth; read-out: Minimum Inhibitory Concentration, N. gonorrhoeae FA1090
Outline: as §2

E. coli K12 PBP3 = target: T1, E. coli K12 PBP3 (Escherichia coli, UniProt P0AD68); assay: biochemical; assay type: binding
T1 construct: made in house
T1 sequence (P0AD68 1-577): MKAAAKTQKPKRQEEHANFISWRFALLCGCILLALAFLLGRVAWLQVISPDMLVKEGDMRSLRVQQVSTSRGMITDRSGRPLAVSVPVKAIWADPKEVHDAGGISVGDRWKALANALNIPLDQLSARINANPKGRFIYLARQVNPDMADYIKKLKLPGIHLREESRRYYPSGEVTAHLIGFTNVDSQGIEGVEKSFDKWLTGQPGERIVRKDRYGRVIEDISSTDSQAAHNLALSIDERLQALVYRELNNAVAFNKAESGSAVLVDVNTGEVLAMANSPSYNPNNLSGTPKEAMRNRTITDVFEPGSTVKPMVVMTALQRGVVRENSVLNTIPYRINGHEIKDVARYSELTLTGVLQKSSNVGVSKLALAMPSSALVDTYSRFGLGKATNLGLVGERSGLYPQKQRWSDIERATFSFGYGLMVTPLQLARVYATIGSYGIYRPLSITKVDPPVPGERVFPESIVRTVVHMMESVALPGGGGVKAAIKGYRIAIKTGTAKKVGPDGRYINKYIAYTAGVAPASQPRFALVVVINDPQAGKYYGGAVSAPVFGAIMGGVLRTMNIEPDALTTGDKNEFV
Outline: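 Fluorescence polarization (ex 490/em 520 nm) competition of inhibitors against Bocillin-FL at 0.1 μM, read up to 60 min. Final PBP levels: E. coli PBP3 1.5 μM; A. baumannii PBP2 2.5 μM, PBP3 0.2 μM in Tris pH 8.0/NaCl/glycerol/Tween 20; N. gonorrhoeae PBP2 […] in Hepes pH 8.0/NaCl/glycerol. EC50 = concentration halving PBP-bound Bocillin-FL.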

Compound | MIC (N. gonorrhoeae WHO K) [µg/mL] | MIC (N. gonorrhoeae WHO G) [µg/mL] | MIC (N. gonorrhoeae WHO L) [µg/mL] | MIC (N. gonorrhoeae WHO Z) [µg/mL] | MIC [1] [µg/mL] | MIC (N. gonorrhoeae WHO Q) [µg/mL] | MIC (N. gonorrhoeae H041) [µg/mL] | MIC (N. gonorrhoeae FA1090) [µg/mL] | EC50 (E. coli K12 PBP3) [µM]
NC1(CN2CCN(C(=O)NC(C(=O)N[C@H]3Cc4cccc(C(=O)O)c4OB3O)c3cccc(NS(N)(=O)=O)c3)C(=O)C2=O)CC1 (stereo partly drawn) [Example 120, (3R)-3-(2-(4-((1-aminocyclopropyl)methyl)-2,3-dioxopiperazine-1-carboxamido)-2-(3-(sulfamoylamino)phenyl)acetamido)-2-hydroxy-3,4-dihydro-2H-benzo[e][1,2]oxaborinine-8-carboxylic acid] | > 64 | > 64 | > 64 | > 64 | > 64 | > 64 | > 64 | 4 to 8 (≈ 6.22 to 12.4 µM) | 30 to 500
O=C(O)c1c(F)ccc2c1OB(O)[C@@H](NC(=O)C(NC(=O)N1CCN(CCF)C(=O)C1=O)c1c(F)cc(O)cc1F)C2 (stereo partly drawn) [Example 129, (3R)-3-(2-(2,6-difluoro-4-hydroxyphenyl)-2-(4-(2-fluoroethyl)-2,3-dioxopiperazine-1-carboxamido)acetamido)-7-fluoro-2-hydroxy-3,4-dihydro-2H-benzo[e][1,2]oxaborinine-8-carboxylic acid] | 16 to 32 (≈ 26.8 to 53.7 µM) | 4 to 8 (≈ 6.71 to 13.4 µM) | > 64 | 4 to 8 (≈ 6.71 to 13.4 µM) | 16 to 32 (≈ 26.8 to 53.7 µM) | 16 to 32 (≈ 26.8 to 53.7 µM) | 16 to 32 (≈ 26.8 to 53.7 µM) | 1 to 2 (≈ 1.68 to 3.35 µM) | < 30
CCN1CCN(C(=O)NC(C(=O)N[C@H]2Cc3ccc(F)c(C(=O)O)c3OB2O)c2c(F)cc(O)cc2F)C(=O)C1=O (stereo partly drawn) [Example 130, (3R)-3-(2-(2,6-difluoro-4-hydroxyphenyl)-2-(4-ethyl-2,3-dioxopiperazine-1-carboxamido)acetamido)-7-fluoro-2-hydroxy-3,4-dihydro-2H-benzo[e][1,2]oxaborinine-8-carboxylic acid] | 16 to 32 (≈ 27.7 to 55.3 µM) | 4 to 8 (≈ 6.92 to 13.8 µM) | > 64 | 4 to 8 (≈ 6.92 to 13.8 µM) | 4 to 8 (≈ 6.92 to 13.8 µM) | 16 to 32 (≈ 27.7 to 55.3 µM) | 16 to 32 (≈ 27.7 to 55.3 µM) | 1 to 2 (≈ 1.73 to 3.46 µM) | < 30
NS(=O)(=O)Nc1cccc(C(NC(=O)N2CCN(Cc3c(F)cc(O)c(O)c3Cl)C(=O)C2=O)C(=O)N[C@H]2Cc3cccc(C(=O)O)c3OB2O)c1 (stereo partly drawn) [Example 131, (3R)-3-(2-(4-(2-chloro-6-fluoro-3,4-dihydroxybenzyl)-2,3-dioxopiperazine-1-carboxamido)-2-(3-(sulfamoylamino)phenyl)acetamido)-2-hydroxy-3,4-dihydro-2H-benzo[e][1,2]oxaborinine-8-carboxylic acid] | > 64 | > 64 | > 64 | > 64 | > 64 | > 64 | > 64 | 16 to 32 (≈ 21.4 to 42.7 µM) | < 30
NS(=O)(=O)c1cc(O)cc(C(NC(=O)N2CCN(Cc3c(F)cc(O)c(O)c3Cl)C(=O)C2=O)C(=O)N[C@H]2Cc3cccc(C(=O)O)c3OB2O)c1 (stereo partly drawn) [Example 132, (3R)-3-(2-(4-(2-chloro-6-fluoro-3,4-dihydroxybenzyl)-2,3-dioxopiperazine-1-carboxamido)-2-(3-hydroxy-5-sulfamoylphenyl)acetamido)-2-hydroxy-3,4-dihydro-2H-benzo[e][1,2]oxaborinine-8-carboxylic acid] | > 64 | > 64 | > 64 | > 64 | > 64 | > 64 | > 64 | 16 to 32 (≈ 21.3 to 42.7 µM) | 30 to 500
CCN1CCN(C(=O)NC(C(=O)N[C@H]2Cc3cccc(C(=O)O)c3OB2O)c2cc(F)c(C(=O)O)cc2F)C(=O)C1=O (stereo partly drawn) [Example 137, (3R)-3-(2-(4-carboxy-2,5-difluorophenyl)-2-(4-ethyl-2,3-dioxopiperazine-1-carboxamido)acetamido)-2-hydroxy-3,4-dihydro-2H-benzo[e][1,2]oxaborinine-8-carboxylic acid] | 4 to 8 (≈ 6.8 to 13.6 µM) | 1 to 2 (≈ 1.7 to 3.4 µM) | 16 to 32 (≈ 27.2 to 54.4 µM) | 4 to 8 (≈ 6.8 to 13.6 µM) | 1 to 2 (≈ 1.7 to 3.4 µM) | 4 to 8 (≈ 6.8 to 13.6 µM) | 16 to 32 (≈ 27.2 to 54.4 µM) | 0.25 to 0.5 (≈ 0.425 to 0.85 µM) | < 30
CCN1CCN(C(=O)NC(C(=O)N[C@H]2Cc3cccc(C(=O)O)c3OB2O)c2cc(Cl)c(C(=O)O)cc2F)C(=O)C1=O (stereo partly drawn) [Example 138, (3R)-3-(2-(4-carboxy-5-chloro-2-fluorophenyl)-2-(4-ethyl-2,3-dioxopiperazine-1-carboxamido)acetamido)-2-hydroxy-3,4-dihydro-2H-benzo[e][1,2]oxaborinine-8-carboxylic acid] | 16 to 32 (≈ 26.5 to 52.9 µM) | 1 to 2 (≈ 1.65 to 3.31 µM) | 16 to 32 (≈ 26.5 to 52.9 µM) | 4 to 8 (≈ 6.61 to 13.2 µM) | 4 to 8 (≈ 6.61 to 13.2 µM) | 4 to 8 (≈ 6.61 to 13.2 µM) | 16 to 32 (≈ 26.5 to 52.9 µM) | < 0.125 | < 30
CCN1CCN(C(=O)NC(C(=O)N[C@H]2Cc3cccc(C(=O)O)c3OB2O)c2cc(F)c(C(=O)O)c(F)c2)C(=O)C1=O (stereo partly drawn) [Example 141, (3R)-3-(2-(4-carboxy-3,5-difluorophenyl)-2-(4-ethyl-2,3-dioxopiperazine-1-carboxamido)acetamido)-2-hydroxy-3,4-dihydro-2H-benzo[e][1,2]oxaborinine-8-carboxylic acid] | 1 to 2 (≈ 1.7 to 3.4 µM) | 0.25 to 0.5 (≈ 0.425 to 0.85 µM) | 4 to 8 (≈ 6.8 to 13.6 µM) | 1 to 2 (≈ 1.7 to 3.4 µM) | 1 to 2 (≈ 1.7 to 3.4 µM) | 1 to 2 (≈ 1.7 to 3.4 µM) | 4 to 8 (≈ 6.8 to 13.6 µM) | < 0.125 | < 30
NCCN1CCN(C(=O)NC(C(=O)N[C@H]2Cc3cccc(C(=O)O)c3OB2O)c2ccc(C(=O)O)cc2O)C(=O)C1=O (stereo partly drawn) [Example 142, (3R)-3-(2-(4-(2-aminoethyl)-2,3-dioxopiperazine-1-carboxamido)-2-(4-carboxy-2-hydroxyphenyl)acetamido)-2-hydroxy-3,4-dihydro-2H-benzo[e][1,2]oxaborinine-8-carboxylic acid] | > 64 | 4 to 8 (≈ 6.86 to 13.7 µM) | > 64 | > 64 | 16 to 32 (≈ 27.4 to 54.9 µM) | > 64 | > 64 | 4 to 8 (≈ 6.86 to 13.7 µM) | 30 to 500
CCN1CCN(C(=O)NC(C(=O)N[C@H]2Cc3cccc(C(=O)O)c3OB2O)c2ccc(C(=O)O)cc2F)C(=O)C1=O (stereo partly drawn) [Example 145, (3R)-3-(2-(4-carboxy-2-fluorophenyl)-2-(4-ethyl-2,3-dioxopiperazine-1-carboxamido)acetamido)-2-hydroxy-3,4-dihydro-2H-benzo[e][1,2]oxaborinine-8-carboxylic acid] | 4 to 8 (≈ 7.01 to 14 µM) | 1 to 2 (≈ 1.75 to 3.51 µM) | 16 to 32 (≈ 28.1 to 56.1 µM) | 4 to 8 (≈ 7.01 to 14 µM) | 1 to 2 (≈ 1.75 to 3.51 µM) | 4 to 8 (≈ 7.01 to 14 µM) | 4 to 8 (≈ 7.01 to 14 µM) | < 0.125 | < 30
CCN1CCN(C(=O)NC(C(=O)N[C@H]2Cc3cccc(C(=O)O)c3OB2O)c2c(Cl)cc(C(=O)O)cc2Cl)C(=O)C1=O (stereo partly drawn) [Example 150, (3R)-3-(2-(4-carboxy-2,6-dichlorophenyl)-2-(4-ethyl-2,3-dioxopiperazine-1-carboxamido)acetamido)-2-hydroxy-3,4-dihydro-2H-benzo[e][1,2]oxaborinine-8-carboxylic acid] | > 64 | 16 to 32 (≈ 25.8 to 51.5 µM) | > 64 | > 64 | > 64 | > 64 | > 64 | 4 to 8 (≈ 6.44 to 12.9 µM) | 30 to 500
